In publication PMC9951859, “Investigation of α,ω-Disubstituted Polyamine-Cholic Acid Conjugates Identifies Hyodeoxycholic and Chenodeoxycholic Scaffolds as Non-Toxic, Potent Antimicrobials” (Antibiotics, 2023):
Values after ≈ are worked out from the molar mass of the structure shown. Like-named read-outs stand apart in the source and are kept apart here.

How the values were obtained:
[1] = Cytotoxicity assay on HEK293; type: cell-based, human; conditions: human, HEK293 human embryonic kidney cells; concentration at 50% cytotoxicity on HEK293; mean (n = 2); top dose tested 32 μg/mL
Method: Cytotoxicity assays were conducted using the protocols previously reported.

[2] = tested on: Staphylococcus aureus ATCC 43300 (MRSA); test: Antimicrobial MIC assay (CO-ADD) against S. aureus MRSA; type: cell-based; conditions: Staphylococcus aureus, read-out: MIC S.a.
Source text: (§1) Antimicrobial evaluation against S. aureus (MRSA) (ATCC 43300), E. coli (ATCC 25922), K. pneumoniae (ATCC 700603), A. baumannii (ATCC 19606), C. albicans (ATCC 90028), and C. neoformans (ATCC 208821) was undertaken at the Community for Open Antimicrobial Drug Discovery at The University of Queensland (Australia) according to their standard protocols as reported previously.

[3] = tested on: Pseudomonas aeruginosa ATCC 27853; test: Antimicrobial MIC assay (CO-ADD) against P. aeruginosa; type: cell-based; conditions: Pseudomonas aeruginosa, ATCC27853, read-out: MIC P.a.
[4] = tested on: Acinetobacter baumannii ATCC 19606; test: Antimicrobial MIC assay (CO-ADD) against A. baumannii; type: cell-based; conditions: Acinetobacter baumannii, ATCC19606, read-out: MIC A.b.
Source text: as §1

[5] = tested on: Candida albicans ATCC 90028; test: Antimicrobial MIC assay (CO-ADD) against C. albicans; type: cell-based; conditions: mean (n = 2)
Source text: as §1

[6] = tested on: Escherichia coli ATCC 25922; test: Antimicrobial MIC assay (CO-ADD) against E. coli; type: cell-based; conditions: Escherichia coli, ATCC25922, read-out: MIC E.c.
Source text: as §1

[7] = tested on: Cryptococcus neoformans ATCC 208821; test: Antimicrobial MIC assay (CO-ADD) against C. neoformans; type: cell-based
Source text: as §1

human red blood cells = test: Hemolytic assay; type: cell-based; conditions: concentration at 10% hemolytic activity on human red blood cells; mean (n = 2); top dose tested 32 μg/mL
Method: Hemolytic assays were conducted using the protocols previously reported.

[8] = tested on: Klebsiella pneumoniae ATCC 700603; test: Antimicrobial MIC assay (CO-ADD) against K. pneumoniae; type: cell-based; conditions: Klebsiella pneumoniae, ATCC700603, read-out: MIC K.p.
Source text: as §1

[9] = Candida albicans, ATCC90028, read-out: MIC C.a., Candida albicans ATCC 90028
[10] = Cryptococcus neoformans, ATCC208821, read-out: MIC C.n.

Row | SMILES | IC50 [1] | MIC [2] | MIC [3] | MIC [4] | MIC [5, 9] | MIC [6] | MIC [7, 10] | Hemolysis (HC10) (human red blood cells) | MIC [8] | MIC ([5]; ATCC90028, Candida albicans ATCC 90028, read-out: MIC C.a.) | MIC ([7]; ATCC208821, Cryptococcus neoformans ATCC 208821, mean (n = 2), read-out: MIC C.n.)
1 | CC/C(=C(\c1ccccc1)c1ccc(OCCN(C)C)cc1)c1ccccc1 [Tamoxifen, reference compound] | 24 µM |  |  |  |  |  |  |  |  |  | 
2 | CN[C@H](CC(C)C)C(=O)N[C@H]1C(=O)N[C@@H](CC(N)=O)C(=O)N[C@H]2C(=O)N[C@H]3C(=O)N[C@H](C(=O)N[C@H](C(=O)O)c4cc(O)cc(O)c4-c4cc3ccc4O)[C@H](O)c3ccc(c(Cl)c3)Oc3cc2cc(c3O[C@@H]2O[C@H](CO)[C@@H](O)[C@H](O)[C@H]2O[C@H]2C[C@](C)(N)[C@H](O)[C@H](C)O2)Oc2ccc(cc2Cl)[C@H]1O [vancomycin, reference compound] |  | 0.7 µM (≈ 1.01 µg/mL) |  |  |  |  |  |  |  |  | 
3 | C[C@H](CCC(=O)NCCCNCCCCCCNCCCNC(=O)CC[C@@H](C)[C@H]1CC[C@H]2[C@@H]3[C@@H](O)C[C@@H]4C[C@H](O)CC[C@]4(C)[C@H]3CC[C@]12C)[C@H]1CC[C@H]2[C@@H]3[C@@H](O)C[C@@H]4C[C@H](O)CC[C@]4(C)[C@H]3CC[C@]12C.O=C(O)C(F)(F)F.O=C(O)C(F)(F)F [Compound 8b, N^1,N^6-Bis(3-((R)-4-((3R,5S,7S,8R,9S,10S,13R,14S,17R)-3,7-dihydroxy-10,13-dimethylhexadecahydro-1H-cyclopenta[a]phenanthren-17-yl)pentanamido)propyl)hexane-1,6-diaminium 2,2,2-trifluoroacetate] | > 27 µM | 1.7 µM | > 26 µM | > 26 µM | 27 µM | > 26 µM | > 27 µM | 11 µM | > 26 µM |  | 
4 | C[C@H](CCC(=O)NCCCNCCCCCCNCCCNC(=O)CC[C@@H](C)[C@H]1CC[C@H]2[C@@H]3C[C@H](O)[C@@H]4C[C@H](O)CC[C@]4(C)[C@H]3CC[C@]12C)[C@H]1CC[C@H]2[C@@H]3C[C@H](O)[C@@H]4C[C@H](O)CC[C@]4(C)[C@H]3CC[C@]12C.O=C(O)C(F)(F)F.O=C(O)C(F)(F)F [Compound 7b, N^1,N^6-Bis(3-((R)-4-((3R,5R,6S,8S,9S,10R,13R,14S,17R)-3,6-dihydroxy-10,13-dimethylhexadecahydro-1H-cyclopenta[a]phenanthren-17-yl)pentanamido)propyl)hexane-1,6-diaminium 2,2,2-trifluoroacetate] | > 26 µM | ≤ 0.21 µM | > 26 µM | > 26 µM | 13 µM | > 26 µM | ≤ 0.21 µM | >26 µM | > 26 µM |  | 
5 | C[C@H](CCC(=O)NCCCNCCCCNCCCNC(=O)CC[C@@H](C)[C@H]1CC[C@H]2[C@@H]3[C@@H](O)C[C@@H]4C[C@H](O)CC[C@]4(C)[C@H]3CC[C@]12C)[C@H]1CC[C@H]2[C@@H]3[C@@H](O)C[C@@H]4C[C@H](O)CC[C@]4(C)[C@H]3CC[C@]12C.O=C(O)C(F)(F)F.O=C(O)C(F)(F)F [Compound 8a, N^1,N^4-Bis(3-((R)-4-((3R,5S,7S,8R,9S,10S,13R,14S,17R)-3,7-dihydroxy-10,13-dimethylhexadecahydro-1H-cyclopenta[a]phenanthren-17-yl)pentanamido)propyl)butane-1,4-diaminium 2,2,2-trifluoroacetate] | > 27 µM | 27 µM | > 27 µM | > 27 µM | 27 µM | > 27 µM | > 27 µM | 7.3 µM | > 27 µM |  | 
6 | C[C@H](CCC(=O)NCCCNCCCCCCCCCCNCCCNC(=O)CC[C@@H](C)[C@H]1CC[C@H]2[C@@H]3[C@@H](O)C[C@@H]4C[C@H](O)CC[C@]4(C)[C@H]3CC[C@]12C)[C@H]1CC[C@H]2[C@@H]3[C@@H](O)C[C@@H]4C[C@H](O)CC[C@]4(C)[C@H]3CC[C@]12C.O=C(O)C(F)(F)F.O=C(O)C(F)(F)F [Compound 8e, N^1,N^10-Bis(3-((R)-4-((3R,5S,7S,8R,9S,10S,13R,14S,17R)-3,7-dihydroxy-10,13-dimethylhexadecahydro-1H-cyclopenta[a]phenanthren-17-yl)pentanamido)propyl)decane-1,10-diaminium 2,2,2-trifluoroacetate] | > 25 µM | ≤ 0.2 µM | > 25 µM | > 25 µM | 3.2 µM | > 25 µM | 1.6 µM | 3.3 µM | > 25 µM |  | 
7 | C[C@H](CCC(=O)NCCCNCCCCCCCCNCCCNC(=O)CC[C@@H](C)[C@H]1CC[C@H]2[C@@H]3[C@@H](O)C[C@@H]4C[C@H](O)CC[C@]4(C)[C@H]3CC[C@]12C)[C@H]1CC[C@H]2[C@@H]3[C@@H](O)C[C@@H]4C[C@H](O)CC[C@]4(C)[C@H]3CC[C@]12C.O=C(O)C(F)(F)F.O=C(O)C(F)(F)F [Compound 8d, N^1,N^8-Bis(3-((R)-4-((3R,5S,7S,8R,9S,10S,13R,14S,17R)-3,7-dihydroxy-10,13-dimethylhexadecahydro-1H-cyclopenta[a]phenanthren-17-yl)pentanamido)propyl)octane-1,8-diaminium 2,2,2-trifluoroacetate] | > 26 µM | ≤ 0.2 µM | > 26 µM | > 26 µM | 26 µM | > 26 µM | 13 µM | 5.6 µM | > 26 µM |  | 
8 | OC(Cn1cncn1)(Cn1cncn1)c1ccc(F)cc1F [fluconazole, reference compound] |  |  |  |  |  |  |  |  |  | 0.4 µM (≈ 0.123 µg/mL) | 26 µM (≈ 7.96 µg/mL)
9 | C[C@H](CCC(=O)NCCCNCCCCCCCNCCCNC(=O)CC[C@@H](C)[C@H]1CC[C@H]2[C@@H]3[C@@H](O)C[C@@H]4C[C@H](O)CC[C@]4(C)[C@H]3CC[C@]12C)[C@H]1CC[C@H]2[C@@H]3[C@@H](O)C[C@@H]4C[C@H](O)CC[C@]4(C)[C@H]3CC[C@]12C.O=C(O)C(F)(F)F.O=C(O)C(F)(F)F [Compound 8c, N^1,N^7-Bis(3-((R)-4-((3R,5S,7S,8R,9S,10S,13R,14S,17R)-3,7-dihydroxy-10,13-dimethylhexadecahydro-1H-cyclopenta[a]phenanthren-17-yl)pentanamido)propyl)heptane-1,7-diaminium 2,2,2-trifluoroacetate] | > 26 µM | ≤ 0.21 µM | > 26 µM | > 26 µM | 13 µM | > 26 µM | 26 µM | 11 µM | > 26 µM |  | 
10 | C[C@H](CCC(=O)NCCCNCCCCCCCCCCCCNCCCNC(=O)CC[C@@H](C)[C@H]1CC[C@H]2[C@@H]3C[C@H](O)[C@@H]4C[C@H](O)CC[C@]4(C)[C@H]3CC[C@]12C)[C@H]1CC[C@H]2[C@@H]3C[C@H](O)[C@@H]4C[C@H](O)CC[C@]4(C)[C@H]3CC[C@]12C.O=C(O)C(F)(F)F.O=C(O)C(F)(F)F [Compound 7f, N^1,N^12-Bis(3-((R)-4-((3R,5R,6S,8S,9S,10R,13R,14S,17R)-3,6-dihydroxy-10,13-dimethylhexadecahydro-1H-cyclopenta[a]phenanthren-17-yl)pentanamido)propyl)dodecane-1,12-diaminium 2,2,2-trifluoroacetate] | 25 µM | ≤ 0.19 µM | > 25 µM | > 25 µM | ≤ 0.2 µM | > 25 µM | ≤ 0.19 µM | >25 µM | > 25 µM |  | 
